Measurements as given in patent publication US20160370380A1, “COMBINATORIAL ANTIBODY DIAGNOSTIC” (PharmaSeq, Inc., priority 2015, published 2016).

Experiments:
[1] = test system: anti-HA antibody; experiment: HA competitive binding: free peptide in solution competes with […] on MTPs for the anti-HA antibody; conditions: for competitive activity against YPYDVPDYA peptide on MTPs for anti-HA antibody: free peptide with spacer GG in solution, FIG. 3
[2] = test system: anti-HA antibody; experiment: anti-HA antibody binding assay on MTP-bound peptides (fluorescence, SAPE detection)

| Substance | competitive activity against YPYDVPDYA peptide on MTPs for anti-HA antibody [1] | assay signal (binding to anti-HA antibody) in screen of random 4-aa peptide library ([2]; 5,307 random 4-aa peptides on MTPs, 10 ug/mL biotinylated anti-HA monoclonal antibody, fluorescence at 532 nm) | binding affinity to the anti-HA antibody (conclusion from competition and screen) ([1]; taken together from results of FIG. 3 and screen) | recognition by / affinity to anti-HA antibody in HA peptide assay ([2]; […], QC control group vial #9, data not shown) |
| --- | --- | --- | --- | --- |
| HKRK | no competitive activity | very low binding |  |  |
| YHYY | competed well |  | high binding affinity |  |
| YPYDVPDYA | reduced assay signal |  |  | specifically recognized by anti-HA antibody |
